Results published in paper PMC4791264, “Characterization and bioactivity of novel calcium antagonists - N-methoxy-benzyl haloperidol quaternary ammonium salt” (Oncotarget, 2015).
Like-named read-outs stand apart in the source and are kept apart here.

Tests used:
[1] = test system: isolated rat thoracic aortic rings; test: Vasodilation on KCl (60 mM)-contracted isolated rat thoracic aortic rings; conditions: KCl (60 mM)-induced contraction of rat aortic rings; 0.1 to 10 μM
Description: The vasodilation activity of compounds was evaluated in isolated rat thoracic aortic rings according to the methods of Greenwood and Polster et al. The aortic rings were allowed to equilibrate in Krebs bicarbonate solution ((PSS), containing118.0 mM NaCl, 4.7 mM KCl, 1.2 mM KH2PO4, 1.2 mM MgSO4.7H2O, 5.0 mM glucose, 25.0 mM NaHCO3, and 2.5 mM CaCl2.7H2O at 37°C and were gassed with 95% O2 and 5% CO2 for 90 min at a testing tension. KCl (60 mM) was used to depolarize the aortic rings. When the amplitude of the contraction reached a plateau, compounds X1, X2, X3 were added. Cumulative concentration-response curves to all compounds were determined in the absence and presence of endothelium. Using tips of forceps, the endothelium was mechanically removed from some rings by gently rubbing the lumen, if absence of endothelium is needed. Acetylcholine was used to confirm the removal of endothelium from the aortic rings.

rat myocardiocytes = test: Inhibition of KCl-induced extracellular calcium influx (Fluo-3 fluorescence, confocal microscopy); type: cell-based; conditions: 60 mM KCl; for reduction of Ca^2+ fluorescent intensity, maximum degree: 0.1–10 μM
Description: Fluorescence intensity of Ca^2+ in myocardial cell was determined by laser scanning confocal microscopy (ACAS/ULTIMA312, Meridian Instruments) as previously described. Rat myocardiocytes were grown on 24-mm glass coverslips in 6-well plates in DMEM containing 10% FBS. After 24 h, the cells were incubated with Fluo 3-AM (20 μM) for 60 min in the dark at 37°C. Then, the cells were washed with HBSS three times to remove extracellular Fluo 3-AM. HBSS (HEPES-buffered physiological saline solution) contains 130 mM NaCl, 2.5 mM KCl, 1.2 mM MgCl2, 10 mM HEPES, 10 mM glucose, and 2 mM CaCl2, pH 7.4 (adjusted with NaOH). […] KCl was added into the cultured cells to induce the influx of extracellular Ca^2+ in HBSS and changes in fluorescence were recorded. Myocardiocytes were incubated for 30 min with 0.1, 1, and 10 μM compounds before adding KCl. Effect of compounds on KCl-induced changes in fluorescence was investigated.

[2] = molecular target: T1, L-type calcium channels in rat ventricular myocytes (Rattus norvegicus, UniProt P0DP29+P22002); test: Inhibition of L-type calcium current (patch-clamp); type: cell-based; conditions: 0.1 to 10 μM, rat myocardiocytes
T1 construct: reduced the amplitude of the L-type calcium current in rat myocardiocytes; endogenous in cells; host or cells: rat ventricular myocytes (single cells)

H9c2 cell = test: LDH in culture medium under hypoxia/reoxygenation, H9c2 cells; type: cell-based; conditions: 1 × 10^−6 mol/L, vs H/R group (p < 0.01)
Description: (§1) Myocardiocytes H9c2 cell and the one which the L-type calcium channel gene was knock-out, the […]-/-) were incubated separately in culture plates. When cell confluence reached 85%, the cells were incubated for another 12 hours in DMEM medium with 0.5% FBS. Then cells were randomly divided into 6 groups, namely the control group, H/R group, DMSO group, H/R+X1(1 × 10^-6 mol/L) group, H/R+X2 (1 × 10^-6 mol/L) group and H/R+X3 (1 × 10^-6 mol/L) group. The hypoxic DMEM culture medium and reoxygenation medium were used in H/R process. The final volume was 500 uL. The compounds (X1, X2, X3) were administered continuously during the hypoxia/reoxygenation process. Finally, cell supernatant was collected and LDH was measured by colorimetric method according to the Kit instruction by manufacturer (Nanjin Jiancheng Lit. China).

H9c2 cell (Cacnalc−/−) = test: LDH in culture medium under hypoxia/reoxygenation, H9c2 (Cacnalc−/−) cells; type: cell-based; conditions: 1 × 10^−6 mol/L
Description: as §1

SD rats [3] = conditions: rat, in vivo
SD rats [4] = test: Effect on rat hemodynamics (left ventricular pressure, heart rate); conditions: anesthetized SD rats, 3 min after administration

Compound	IC50 [1] [nM]	maximum inhibition on the vascular ring contraction [1] [%]	reduction of Ca^2+ fluorescent intensity, maximum degree (rat myocardiocytes) [%]	maximum inhibition rate of L-type calcium current [2] [%]	IC50 [2] [nM]	LDH under H/R (H9c2 cell)	LDH under H/R (H9c2 cell (Cacnalc−/−))	+LVdp/dtmax (SD rats [3]; 0.25 mg/kg)	−LVdp/dtmax (SD rats [3]; 0.25 mg/kg)	+LVdp/dtmax (SD rats [3]; 0.5 mg/kg)	−LVdp/dtmax (SD rats [3]; 0.5 mg/kg)	HR (SD rats [4]; 0.25 mg/kg)	LVEDP (SD rats [4]; 0.25 mg/kg)	LVSP (SD rats [4]; 0.25 mg/kg)	HR (SD rats [4]; 0.5 mg/kg)	LVEDP (SD rats [4]; 0.5 mg/kg)	LVSP (SD rats [4]; 0.5 mg/kg)	HR (SD rats [4]; 1 mg/kg)	LVEDP (SD rats [4]; 1 mg/kg)	LVSP (SD rats [4]; 1 mg/kg)	further results
COc1ccc(C[N+]2(CCCC(=O)c3ccc(F)cc3)CCC(O)(c3ccc(Cl)cc3)CC2)cc1 (stereo not shown) [Compound X1]	432	92.5	76.5	97.2	472	decreased	remained unchanged	1043.01 ± 143.24	899.04 ± 142.24	1011.02 ± 152.04	908.21 ± 151.02	355 ± 61	20.34 ± 3.06	145.32 ± 20.08	356 ± 55	21.02 ± 3.08	145.38 ± 18.06	342 ± 51	29.66 ± 4.33	132.32 ± 18.66	+LVdp/dtmax (SD rats [3]; 1 mg/kg): 946.02 ± 132.23; −LVdp/dtmax (SD rats [3]; 1 mg/kg): 884.82 ± 148.09
COc1cccc(C[N+]2(CCCC(=O)c3ccc(F)cc3)CCC(O)(c3ccc(Cl)cc3)CC2)c1 (stereo not shown) [Compound X2]	4220	67.08	53.6	82.8	493	decreased	remained unchanged	1029.32 ± 144.08	982.13 ± 154.56	1022.14 ± 142.21	984.12 ± 144.32	365 ± 59	22.12 ± 3.76	145.98 ± 16.42	362 ± 63	22.08 ± 3.44	146.66 ± 18.04	356 ± 53	26.93 ± 3.26	138.94 ± 16.06	+LVdp/dtmax (SD rats [3]; 1 mg/kg): 902.89 ± 138.88; −LVdp/dtmax (SD rats [3]; 1 mg/kg): 955.23 ± 146.08
COc1ccccc1C[N+]1(CCCC(=O)c2ccc(F)cc2)CCC(O)(c2ccc(Cl)cc2)CC1 (stereo not shown) [Compound X3]	7420	48.66	24.53	70.2	721	decreased	remained unchanged	1129.28 ± 162.26	989.92 ± 161.23	1221.12 ± 170.02	1021.23 ± 153.77	358 ± 52	23.86 ± 3.65	142.94 ± 18.08	362 ± 55	24.91 ± 3.07	148.98 ± 20.02	368 ± 54	23.69 ± 3.77	152.88 ± 21.04	+LVdp/dtmax (SD rats [3]; 1 mg/kg): 1248.36 ± 182.32; −LVdp/dtmax (SD rats [3]; 1 mg/kg): 1022.15 ± 162.24
COc1ccc([C@@H]2Sc3ccccc3N(CCN(C)C)C(=O)[C@@H]2OC(C)=O)cc1 [Dil, diltiazem]												322 ± 25	30.21 ± 3.99	138.54 ± 21.35	321 ± 29	33.26 ± 4.26	130.25 ± 17.33	304 ± 47	38.51 ± 7.45	127.55 ± 21.23	+LVdp/dtmax (SD rats [4]; 0.25 mg/kg): 1099.22 ± 142.66; −LVdp/dtmax (SD rats [4]; 0.25 mg/kg): 787.25 ± 74.25; +LVdp/dtmax (SD rats [4]; 0.5 mg/kg): 922.11 ± 129.44; −LVdp/dtmax (SD rats [4]; 0.5 mg/kg): 689.76 ± 77.62; +LVdp/dtmax (SD rats [4]; 1 mg/kg): 899.08 ± 128.32; −LVdp/dtmax (SD rats [4]; 1 mg/kg): 622.94 ± 84.42
COC(=O)C1=C(C)NC(C)=C(C(=O)OC)C1c1ccccc1[N+](=O)[O-] [Nif, nifedipine]												372 ± 29	29.33 ± 5.56	137.21 ± 18.26	397 ± 73	33.64 ± 8.12	132.11 ± 11.10	311 ± 54	45.50 ± 6.43	105.00 ± 12.23	
COc1ccc(CCN(C)CCCC(C#N)(c2ccc(OC)c(OC)c2)C(C)C)cc1OC (stereo not shown) [Ver, verapamil]												328 ± 28	25.39 ± 7.45	132.24 ± 12.74	302 ± 77	38.21 ± 8.18	112.74 ± 21.08	298 ± 41	42.21 ± 6.23	102.21 ± 14.21	reduction of Ca^2+ fluorescence intensities (rat myocardiocytes; 10 μM, positive control): 86%; +LVdp/dtmax (SD rats [4]; 0.25 mg/kg): 1022.49 ± 130.44; −LVdp/dtmax (SD rats [4]; 0.25 mg/kg): 932.24 ± 95.54; +LVdp/dtmax (SD rats [4]; 0.5 mg/kg): 925.38 ± 172.37; −LVdp/dtmax (SD rats [4]; 0.5 mg/kg): 699.87 ± 91.11; +LVdp/dtmax (SD rats [4]; 1 mg/kg): 885.32 ± 122.21; −LVdp/dtmax (SD rats [4]; 1 mg/kg): 657.80 ± 85.55
